# Test results: patent publication US20130040882A1, “USE OF FIBROBLAST GROWTH FACTOR FRAGMENTS” (NOVARTIS AG, priority 2003, published 2013)
# Test system: transcript levels in tissues (GH/IGF and glucagon/insulin axes, SSTR signalling)
# Type: in vivo, cynomolgus monkeys
# [1] = RNA expression fold change, pituitary
substance,measurement,setting,value
cyclo[4-(NH2—C2H4—NH—CO—O)Pro-Phg-DTrp-Lys-Tyr(4-Bzl)-Phe] [SOM230],"Core-binding factor, runt domain, α subunit 2; translocated to, 1; cyclin D-related ↑",[1],D-related ↑ x3
same,Cyclin D3 ↑,[1],Cyclin D3 ↑ x2.5
same,Cyclin F ↓,[1],Cyclin F ↓ x2
same,Dual specificity phosphatase 8 ↓,[1],phosphatase 8 ↓ x3
same,EGFRBP 2 ↓,[1],EGFRBP 2 ↓ x1.5
same,FGFR 2 ↓,[1],FGFR 2 ↓ x2
same,Fms-related tyrosine kinase 1 (VEGF/vascular permeability factor receptor) ↓,[1],receptor) ↓ x1.5
same,Forkhead box H1 ↑,[1],Forkhead box H1↑ x2
same,Forkhead box O3A ↓,[1],↓ x1.5
same,"G protein-coupled receptor, family C, group 5, member B ↑",[1],"5, member B ↑ x2"
same,G-protein coupled receptor 9 ↑,[1],receptor 9 ↑ x2.5
same,G-protein coupled receptor 49 ↓,[1],receptor 49 ↓ x2
same,"GABA-B R 1, isoform a precursor ↑",[1],↑ x1.5
same,GFR bound protein 10 ↑,[1],↑ x1.5
same,"GLUR 2, precursor ↑",[1],x1.5
same,GTP-binding protein 11 ↑,[1],↑ x2.5
same,"GTP-binding protein (G protein), q polypeptide ↓",[1],↓ x2.5
same,GTP-binding protein like-1 ↓,[1],like-1 ↓ x3
same,Gastrin receptor ↓,[1],Gastrin receptor ↓ x2
same,Glucagon receptor ↑,[1],Glucagon receptor ↑ x7
same,IFN stimulated gene ↑,[1],↑ x3.5
same,"IFNR2 (α, β and ω) ↓",[1],↓ x2.5
same,IFNγ-inducible protein 30 (IP30) ↑,[1],30 (IP30) ↑ x1.5
same,IGF-2 ↓,[1],IGF-2 ↓ x1.5
same,"IGFBP, acid labile subunit ↑",[1],subunit ↑ x3.5
same,"IP3 receptor, type 1 ↑",[1],↑ x1.5
same,"IP-4-phosphatase, type 1, isoform b ↓",[1],"1, isoform b ↓ x2"
same,JAK 1 ↑,[1],JAK 1 ↑ x2
same,"K+ channel, subfamily K, member 3 (TASK) ↓",[1],↓ x4
same,"K+ voltage-gated channel, Shab-related subfamily, member 1 ↓",[1],"subfamily, member 1 ↓ x2"
same,MAPKKK5 ↑,[1],MAPKKK5 ↑ x2
same,Neuroblastoma-amplified protein ↑,[1],↑ x1.5
same,PDGFβ ↓,[1],PDGFβ ↓ x2
same,"PI transfer protein, β ↓",[1],↓ x2.5
same,"PI-3-kinase, catalytic, α polypeptide ↓",[1],polypeptide ↓ x3
same,"PI-3-kinase, catalytic, δ polypeptide ↓",[1],↓ x2
same,PKC inhibitor ↑,[1],PKC inhibitor ↑ x2
same,PLCγ 1 ↓,[1],PLCγ 1 ↓ x1.5
same,"PP 1, regulatory (inhibitor) subunit 5 ↑",[1],↑ x3.5
same,"PTP, receptor type, T ↑",[1],↑ x2
same,Phosphatase and tensin homolog (mutated in multiple advanced cancers 1) ↓,[1],1) ↓ x3.5
same,Programmed cell death 6 ↑,[1],↑ x1.5
same,Putative Ca++ transporting ATPase ↑,[1],transporting ATPase ↑ x2
same,"RAB 5C, member RAS oncogene family ↑",[1],oncogene family ↑ x3
same,"Rab3 GTPase-activating protein, non catalytic subunit ↓",[1],subunit ↓ x2
same,"Rab geranylgeranyltransferase, α subunit ↓",[1],α subunit ↓ x1.5
same,"Rab geranyltransferase, β subunit ↑",[1],β subunit ↑ x2
same,Receptor (calcitonin) activity modifying protein 2 precursor ↑,[1],2 precursor ↑ x3.5
same,Receptor tyrosine kinase-like orphan receptor 2 ↑,[1],receptor 2 ↑ x2
same,Regulator of G-protein signalling 9 ↑,[1],↑ x2
same,S-phase response (cyclin-related) ↑,[1],(cyclin-related) ↑ x2
same,SHB adaptor protein (a Src homology 2 protein) ↓,[1],↓ x2.5
same,SSTR3 ↑,[1],SSTR3 ↑ x3
same,"STAT 1, 91kδ ↓",[1],"STAT 1, 91kδ ↓ x2"
same,Soluble adenylyl cyclase ↓,[1],↓ x2
same,"TNFR subfamily, member 14; herpesvirus entry mediator ↓",[1],entry mediator ↓ x2.5
same,TNFR-associated factor 2 ↓,[1],2 ↓ x4
same,Thrombospondin-p50 ↓,[1],↓ x2
same,Thyroid transcription factor 1 ↑,[1],factor 1 ↑ x2.5
same,VEGF B ↑,[1],VEGF B ↑ x1.5
same,"Extra spindle poles, S. cerevisiae, homolog of ↓","cynomolgus monkey, in vivo",↓ x2.5
same,Acetylserotonin O-methyl transferase-like expression ↓ (fold change),kidney,transferase-like ↓ x3
same,Adrenomedullin expression ↑ (fold change),kidney,x1.5
same,Angiotensin receptor 1B expression ↓ (fold change),kidney,1B ↓ x1.5
same,"Arginine vasopressin (neurophysin II, antidiuretic hormone, diabete insipidus, neurohypophyseal) expression ↑ (fold change)",kidney,↑ x2
same,"CDC37 (cell division cycle 37, S. cerevisiae, homolog) expression ↑ (fold change)",kidney,homolog) ↑ x1.5
same,"CSF-1 receptor, formerly Mc Donough feline sarcoma viral (v-fms) oncogene homolog expression ↑ (fold change)",kidney,homolog ↑ x2.5
same,"Ca++ channel, voltage-dependent, α 1H subunit expression ↑ (fold change)",kidney,α 1H subunit ↑ x2
same,"Calcium/calmodulin-dependent protein kinase kinase 2, β expression ↑ (fold change)",kidney,↑ x1.5
same,"Calmodulin 3 (phosphorylase kinase, δ) expression ↓ (fold change)",kidney,"kinase, δ) ↓ x1.5"
same,"Cdk 5, regulatory subunit 2 (p39) expression ↑ (fold change)",kidney,↑ x1.5
same,"Cdki 1A (p21, Cip 1) expression ↑ (fold change)",kidney,Cip 1) ↑ x5
same,Corticotropin releasing hormone receptor type 2 beta isoform expression ↑ (fold change),kidney,isoform ↑ x1.5
same,Death effector domain-containing expression ↓ (fold change),kidney,↓ x3.5
same,Dopamine receptor D2 expression ↑ (fold change),kidney,receptor D2 ↑ x4.5
same,Fas/Apo-1/CD95 expression ↑ (fold change),kidney,↑ x1.5
same,"GABA (A) receptor, γ2 precursor expression ↑ (fold change)",kidney,precursor ↑ x2
same,GFR-bound protein 7 expression ↑ (fold change),kidney,protein 7 ↑ x2
same,GFR-bound protein 14 expression ↑ (fold change),kidney,protein 14 ↑ x2
same,Gene expression (AvgDiff): IGF-1,kidney,25
same,Gene expression (AvgDiff): IGF-2,kidney,49
same,Gene expression (AvgDiff): IGFBP2,kidney,563
same,Gene expression (AvgDiff): IR,kidney,196
same,Gene expression (AvgDiff): SSTR2,kidney,126
same,Gene expression (AvgDiff): SSTR3,kidney,82
same,Glucocorticoid receptor DNA binding factor 1 expression ↓ (fold change),kidney,↓ x4.5
same,"Glutamate receptor, metabotropic 2 precursor expression ↓ (fold change)",kidney,precursor ↓ x3
same,Growth arrest-specific 6 expression ↑ (fold change),kidney,specific 6 ↑ x1.5
same,IGF-1 expression ↓ (fold change),kidney,IGF-1 ↓ x2.5
same,IGF-2 expression ↓ (fold change),kidney,IGF-2 ↓ x2
same,IGFBP2 expression ↑ (fold change),kidney,IGFBP2 ↑ x1.5
same,IL-7 R precursor expression ↑ (fold change),kidney,↑ x2
same,IRF5 expression ↑ (fold change),kidney,IRF5 ↑ x2
same,Insulin receptor expression ↓ (fold change),kidney,↓ x3
same,"K+ voltage-gated channel, Shaw-related subfamily, member 3 expression ↑ (fold change)",kidney,member 3 ↑ x2.5
same,LIF (cholinergic differentiation factor) expression ↑ (fold change),kidney,factor) ↑ x2
same,"Na+ channel, nonvoltage-gated 1, β (Liddle syndrome) expression ↓ (fold change)",kidney,↓ x2
same,Natriuretic peptide receptor A/guanylate cyclase A (atrionatriuretic peptide receptor A) expression ↑ (fold change),kidney,↑ x2
same,"Opioid receptor, δ1 expression ↑ (fold change)",kidney,δ1 ↑ x2.5
same,"PDGFR, α polypeptide expression ↑ (fold change)",kidney,polypeptide ↑ x1.5
same,PG-endoperoxide synthase 1 (prostaglandin G/H synthase and cyclooxygenase) expression ↓ (fold change),kidney,x3.5
same,"PI-3-kinase, catalytic, α polypeptide expression ↓ (fold change)",kidney,polypeptide ↓ x3
same,"PP 3 (formerly 2B), catalytic subunit, β isoform (calcineurin A β) expression ↓ (fold change)",kidney,↓ x2
same,Putative chemokine receptor; GTP-binding protein expression ↑ (fold change),kidney,↑ x2
same,SSTR2 expression ↑ (fold change),kidney,SSTR 2↑ x2
same,SSTR 3 expression ↑ (fold change),kidney,SSTR 3↑ x3
same,"Solute carrier family 6 (neurotransmitter transporter, creatin), member 8 expression ↓ (fold change)",kidney,member 8 ↓ x3
same,Solute carrier family 9 (Na+/H+ exchanger) isoform 3 regulatory factor 1 expression ↑ (fold change),kidney,↑ x2
same,"TGF, β1 expression ↑ (fold change)",kidney,"TGF, β1 ↑ x1.5"
same,THR binding protein expression ↑ (fold change),kidney,protein ↑x1.5
same,"THR, α (avian erythroblastic leukemia viral (v-erb-a) oncogene homolog) expression ↑ (fold change)",kidney,homolog) ↑x1.5
same,"THR-associated protein, 240kδ subunit expression ↓ (fold change)",kidney,subunit ↓ x1.5
same,"TNF, α-induced protein 3 expression ↓ (fold change)",kidney,↓ x1.5
same,"TNFR superfamily, member 12 expression ↑ (fold change)",kidney,member 12 ↑ x2
same,VWF precursor expression ↑ (fold change),kidney,x2
same,Vasopressin-activated calcium-mobilizing receptor-1 expression ↓ (fold change),kidney,1 ↓ x2
same,"δ sleep inducing peptide, immunoreactor expression ↑ (fold change)",kidney,x2.5
same,1-PI-4-phosphate 5-kinase isoform C expression ↓ (fold change),liver,↓ x2
same,5-hydroxytrypt amine (serotonine) receptor 6 expression ↑ (fold change),liver,receptor 6 ↑ x2.5
